From ChEMBL document CHEMBL1201862, “PubChem BioAssay data set” (2004)
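Each compound was tested at five concentrations against cells in 96-well plates for 48 hours. GI50 is the concentration that inhibits growth by half.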 Activity calls are given as the source filed them. Cut-off read from the data, not from the text of the source: active = GI50 up to about 1.1 µM and inactive = higher.

Assays:
Test in all cases: NCI-60 cell line screen, 48 h
[1] = test system: HCT-116
[2] = test system: CAKI-1
[3] = test system: NCI-H226
[4] = test system: HOP-62
[5] = test system: OVCAR-5
[6] = test system: MOLT-4
[7] = test system: HL-60
[8] = test system: K562
[9] = test system: NCI-H522
[10] = test system: U-251
[11] = test system: UACC-62
[12] = test system: SNB-19
[13] = test system: OVCAR-3
[14] = test system: SF-268
[15] = test system: SW-620
[16] = test system: A498
[17] = test system: M14
[18] = test system: OVCAR-4
[19] = test system: RPMI-8226
[20] = test system: SK-MEL-28

| Compound | GI50 [1] | GI50 [2] | GI50 [3] | GI50 [4] | GI50 [5] | GI50 [6] | GI50 [7] | GI50 [8] | GI50 [9] | GI50 [10] | GI50 [11] | GI50 [12] | GI50 [13] | GI50 [14] | GI50 [15] | GI50 [16] | GI50 [17] | GI50 [18] | GI50 [19] | GI50 [20] |
| --- | --- | --- | --- | --- | --- | --- | --- | --- | --- | --- | --- | --- | --- | --- | --- | --- | --- | --- | --- | --- |
| COC1C(=[N+]=[N-])C(=O)NC(=O)N1C1OC(COC(c2ccccc2)(c2ccccc2)c2ccccc2)C(O)C1O (stereo not given) | 18.2 µM (inactive) | 18.6 µM (inactive) | 17.5 µM (inactive) | 22.7 µM (inactive) | 17.8 µM (inactive) | 18.2 µM (inactive) | 23.2 µM (inactive) | 19.7 µM (inactive) | 16.2 µM (inactive) | 19.7 µM (inactive) | 15.1 µM (inactive) | 19.7 µM (inactive) | 18.7 µM (inactive) | 18.1 µM (inactive) | 18.5 µM (inactive) | 20.1 µM (inactive) | 19 µM (inactive) | 14.2 µM (inactive) | 25.2 µM (inactive) | 16.4 µM (inactive) |
| O=c1[nH]c(=O)n(C2CC(O)C(CO)O2)cc1C#Cc1cc(C(F)(F)F)cc(C(F)(F)F)c1 (stereo not given) | > 22.8 µM (inactive) | > 100 µM (inactive) | > 100 µM (inactive) | > 68.1 µM (inactive) | > 100 µM (inactive) | > 26.9 µM (inactive) | > 60.4 µM (inactive) | > 100 µM (inactive) | 25.1 µM (inactive) | 18 µM (inactive) | > 25.6 µM (inactive) | 20.1 µM (inactive) | > 52.1 µM (inactive) | 43.9 µM (inactive) | > 30.2 µM (inactive) | > 100 µM (inactive) | > 24.8 µM (inactive) | > 29.4 µM (inactive) | > 29.6 µM (inactive) | > 31.7 µM (inactive) |
| O=C1CSC(C(/N=N/c2ccc(Cl)cc2)c2nc3ccccc3[nH]2)=N1 (stereo not given) | > 100 µM (inactive) | > 100 µM (inactive) | 0.0105 µM (active) | 35.2 µM (inactive) | > 100 µM (inactive) | 6.79 µM (inactive) | 51.6 µM (inactive) | 61.8 µM (inactive) | 25.9 µM (inactive) | 53.3 µM (inactive) | > 100 µM (inactive) | 50.6 µM (inactive) | 36.9 µM (inactive) | > 100 µM (inactive) | > 100 µM (inactive) | > 100 µM (inactive) | > 100 µM (inactive) | > 100 µM (inactive) | > 100 µM (inactive) | 35.5 µM (inactive) |
